Experimental data taken from patent US20080261994A1, “CYCLOPROPANE COMPOUNDS AND PHARMACEUTICAL USE THEREOF” (Japan Tobacco Inc., priority 2003, published 2008).
Where two headings read alike, the source gives them in different places.

How the values were obtained:
Type in all cases: biochemical
Recombinant Human MMP-13 = target: T1, Recombinant Human MMP-13 (Homo sapiens, UniProt P45452); assay: MMP-13 inhibitory activity (MMP-13 specific fluorescent substrate with quencher)
T1 construct: purchased R&D systems 511-MM
Method in brief: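 Recombinant human MMP-13 with test compound, reaction started with quenched fluorogenic peptide 7-MCA-Pro-CHA-Gly-NVal-His-Ala-DPA in Tris-HCl buffer, 1 h at 25 °C, stopped with acetic acid. Fluorescence at Ex 325/Em 405 nm; % inhibition versus enzyme-free and inhibitor-free wells, reported as IC50 (μM).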

aggrecanase-1 = target: T2, aggrecanase-1 (Homo sapiens, UniProt O75173); assay: Aggrecanase-1 inhibitory action (Particle Assay, GAG release from aggrecan-containing polyacrylamide particles)
T2 sequence (O75173 213-837): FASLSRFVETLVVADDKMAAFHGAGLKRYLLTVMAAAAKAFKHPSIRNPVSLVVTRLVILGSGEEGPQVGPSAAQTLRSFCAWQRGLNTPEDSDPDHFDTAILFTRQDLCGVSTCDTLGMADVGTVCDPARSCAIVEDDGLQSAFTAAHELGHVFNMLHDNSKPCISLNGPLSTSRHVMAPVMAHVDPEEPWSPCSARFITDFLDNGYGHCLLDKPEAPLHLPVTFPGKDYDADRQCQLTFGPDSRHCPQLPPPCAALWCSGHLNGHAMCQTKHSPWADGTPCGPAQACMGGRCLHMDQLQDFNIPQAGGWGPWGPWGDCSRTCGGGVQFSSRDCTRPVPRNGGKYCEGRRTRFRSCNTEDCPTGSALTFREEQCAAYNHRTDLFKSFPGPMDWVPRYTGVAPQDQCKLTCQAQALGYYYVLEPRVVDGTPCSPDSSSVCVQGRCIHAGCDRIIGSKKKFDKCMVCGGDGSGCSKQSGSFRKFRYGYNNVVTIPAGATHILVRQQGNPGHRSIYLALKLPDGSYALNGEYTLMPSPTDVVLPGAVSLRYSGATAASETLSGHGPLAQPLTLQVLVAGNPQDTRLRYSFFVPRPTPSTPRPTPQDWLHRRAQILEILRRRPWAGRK
Method in brief: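 Enzyme and compound incubated with aggrecan-containing polyacrylamide particles in Tris-HCl buffer at 37° C for 15 h. Released GAG in supernatant measured with 1,9-dimethylmethylene blue at 595 nm against chondroitin sulfate standard; % inhibition from enzyme-free and inhibitor-free wells, reported as TC50 (μM).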

MMP-1 = target: T3, MMP-1 (Homo sapiens, UniProt P03956); assay: MMP-1 inhibitory action (Type I collagen Activity Measurement kit, FITC-labeled collagen type I)
T3 sequence (P03956 100-469): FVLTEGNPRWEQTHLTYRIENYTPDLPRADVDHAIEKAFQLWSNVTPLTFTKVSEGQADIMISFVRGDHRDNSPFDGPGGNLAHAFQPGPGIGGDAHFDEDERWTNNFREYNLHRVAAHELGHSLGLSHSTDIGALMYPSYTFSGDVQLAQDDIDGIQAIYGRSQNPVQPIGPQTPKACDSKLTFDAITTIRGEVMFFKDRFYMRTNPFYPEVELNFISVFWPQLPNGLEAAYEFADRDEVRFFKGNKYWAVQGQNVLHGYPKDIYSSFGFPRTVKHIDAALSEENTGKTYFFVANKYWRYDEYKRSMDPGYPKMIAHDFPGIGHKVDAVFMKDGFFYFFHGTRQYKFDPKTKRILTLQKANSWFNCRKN

[1] = Experimental Example 3, read-out: IC50 MMP13
[2] = Experimental Example 1, read-out: IC50 AG1
[3] = Experimental Example 2, read-out: IC50 MMP1
[4] = Recombinant Human MMP-13, fluorescent substrate, 25° C. for 1 h, read-out: IC50 MMP13 (Experimental Example 3)
[5] = aggrecanase-1 inhibitory action, read-out: IC50 AG1 (Experimental Example 1)
[6] = MMP-1 inhibitory action, FITC-labeled collagen type I, 37° C. for 3 hr, read-out: IC50 MMP1 (Experimental Example 2)

Compound	IC50 (Recombinant Human MMP-13; [1]) [nM]	IC50 (aggrecanase-1; [2]) [nM]	IC50 (MMP-1; [3]) [nM]	IC50 (Recombinant Human MMP-13; [4]) [nM]	IC50 (aggrecanase-1; [5]) [nM]	IC50 (MMP-1; [6]) [nM]
Cc1nc(-c2ccc(S(=O)(=O)N[C@@]3(C(=O)O)C(C)[C@@H]3c3ccccc3)s2)no1 (stereo partly drawn) [Example 2-451]	≥ 1000	≥ 1000	≥ 10000			
O=C(CN1CCOCC1)Nc1cccc(C2CC2(NS(=O)(=O)c2ccc(-c3ccc(Cl)cc3)s2)C(=O)O)c1 (stereo not drawn) [Example 2-261]				< 1000	< 1000	≥ 10000
CC1(c2cccc(Cl)c2)CC1(NS(=O)(=O)c1ccc(-c2cc(C(F)(F)F)on2)s1)C(=O)O (stereo not drawn) [Example 2-612]	≥ 1000	< 100	< 1000			
Cc1nc(-c2ccc(S(=O)(=O)N[C@@]3(C(=O)O)C[C@@H]3c3ccccc3)s2)no1 [Example 2-51]				≥ 1000	≥ 1000	≥ 10000
CC1[C@H](c2ccccc2)[C@]1(NS(=O)(=O)c1ccc(-n2cc(C(C)(C)O)cn2)s1)C(=O)O (stereo partly drawn) [Example 2-523]	< 100	< 1000	< 1000			
O=C(O)c1ccccc1C1CC1(NS(=O)(=O)c1ccc(-c2ccc(Cl)cc2)s1)C(=O)O (stereo not drawn) [Example 2-196]				< 100	< 100	≥ 1000
O=C(Nc1cccc(C2CC2(NS(=O)(=O)c2ccc(-c3ccc(Cl)cc3)cc2)C(=O)O)c1)c1ccccn1 (stereo not drawn) [Example 1-62]				< 100	< 1000	≥ 1000
CCOC(=O)c1cnn(-c2ccc(S(=O)(=O)N[C@@]3(C(=O)O)C(C)[C@@H]3c3ccccc3)s2)c1 (stereo partly drawn) [Example 2-521]	< 100	< 1000	≥ 1000			
CC1C(c2ccccc2)C1(NS(=O)(=O)c1ccc(-c2ccc(Cl)cc2)s1)C(=O)O (stereo not drawn) [Example 2-326]	< 1000	< 1000	≥ 1000			
C[C@]1(c2ccccc2)C[C@@]1(NS(=O)(=O)c1ccc(-c2ccc(Cl)c([N+](=O)[O-])c2)s1)C(=O)O [Example 2-477]	≥ 1000	≥ 1000	≥ 10000			
Cc1cc(C2CC2(NS(=O)(=O)c2ccc(-c3cc(C(F)(F)F)on3)s2)C(=O)O)no1 (stereo not drawn) [Example 2-313]	< 1000	< 1000	≥ 1000			
O=C(O)CSCC1(c2ccccc2)CC1(NS(=O)(=O)c1ccc(-c2cc(C(F)(F)F)on2)s1)C(=O)O (stereo not drawn) [Example 2-410]	≥ 1000	< 100	≥ 1000			
O=C(NCCCC1(c2ccccc2)CC1(NS(=O)(=O)c1ccc(-c2ccc(Cl)cc2)s1)C(=O)O)OC1CCCC1 (stereo not drawn) [Example 2-298]	< 100	< 100	≥ 1000			
CCCNC(=O)c1ccc(S(=O)(=O)NC2(C(=O)O)CC2c2ccccc2)s1 (stereo not drawn) [Example 2-93]				≥ 1000	≥ 10000	≥ 10000
Cc1cn(-c2ccc(S(=O)(=O)N[C@@]3(C(=O)O)C(C)[C@@H]3c3ccccc3)s2)cn1 (stereo partly drawn) [Example 2-367]	≥ 1000	≥ 1000	≥ 10000			
O=C(O)C1(NS(=O)(=O)c2ccc(-c3ccc(Cl)cc3)cc2)CC1c1cccc(Oc2cccnc2)c1 (stereo not drawn) [Example 1-68]				< 100	< 1000	≥ 1000
O=C(O)[C@]1(NS(=O)(=O)/C=C/c2ccc(C(F)(F)F)cc2)C[C@@H]1c1ccccc1 [Example 2-161]				≥ 1000	≥ 10000	≥ 10000
C[C@]1(c2ccccc2)C[C@@]1(NS(=O)(=O)c1ccc(-c2ccc(Cl)cc2F)s1)C(=O)O [Example 2-406]	< 100	< 100	< 1000			
Cc1cnn(-c2ccc(S(=O)(=O)N[C@@]3(C(=O)O)C[C@@H]3c3ccccc3)cn2)c1 [Example 2-481]	< 100	≥ 1000	≥ 10000			
CC1(c2ccccc2F)CC1(NS(=O)(=O)c1ccc(-c2cc(C(F)(F)F)on2)s1)C(=O)O (stereo not drawn) [Example 2-615]	< 100	< 100	< 100			
